The values below are quoted from earlier work in patent publication US8569304B2, “Active esters of N-substituted piperazine acetic acids, including isotopically enriched versions thereof” (DH Technologies Development Pte. Ltd., priority 2004, dated 2013).

For this series the following is noted: alcohol (leaving group) used to form the trifluoroacetate ester / active ester.

On to `O=C1CCC(=O)N1O` [NHS, N-Hydroxysuccinimide], for which the pKa is on record as 7.80.
